Data set [1] can be described thus: Lipophilicity, log P of the compound. Format: physicochemical. The note with it: octanol/water.
For data set [2], the system named is Plasmodium yoelii nigeriensis. Description: Antimalarial activity against chloroquine-, mefloquine-, halofantrine-resistant Plasmodium yoelii nigeriensis blood stream schizonts infected in Swiss mouse assessed as suppression of parasitemia at 48 mg/kg, im administered once daily for 4 days relative to control. Format: functional. The note with it: route intramuscular.

Data set [3] has as its system Plasmodium yoelii nigeriensis. Description: Antimalarial activity against chloroquine-, mefloquine-, halofantrine-resistant Plasmodium yoelii nigeriensis blood stream schizonts infected in Swiss mouse assessed as suppression of parasitemia at 12 mg/kg, im administered once daily for 4 days relative to control. Format: functional. The note with it: route intramuscular.

In data set [4] the test system is Plasmodium yoelii nigeriensis. Description: Antimalarial activity against chloroquine-, mefloquine-, halofantrine-resistant Plasmodium yoelii nigeriensis blood stream schizonts infected in Swiss mouse assessed as disease cured mouse at 12 mg/kg, im administered once daily for 4 days measured on day 28. Format: functional, organism-based. Also noted: dose 12 mg/kg.

Data set [5] deals with Plasmodium yoelii nigeriensis. Description: Antimalarial activity against chloroquine-, mefloquine-, halofantrine-resistant Plasmodium yoelii nigeriensis blood stream schizonts infected in Swiss mouse assessed as disease cured mouse at 48 mg/kg, im administered once daily for 4 days measured on day 28. Format: functional, organism-based. Also noted: dose 48 mg/kg.
In data set [6] the test system is Plasmodium yoelii nigeriensis. Description: Antimalarial activity against chloroquine-, mefloquine-, halofantrine-resistant Plasmodium yoelii nigeriensis blood stream schizonts infected in Swiss mouse assessed as suppression of parasitemia at 6 mg/kg, im administered once daily for 4 days relative to control. The note with it: route intramuscular. Format: functional.

Data set [7] has as its system Plasmodium yoelii nigeriensis. Description: Antimalarial activity against chloroquine-, mefloquine-, halofantrine-resistant Plasmodium yoelii nigeriensis blood stream schizonts infected in Swiss mouse assessed as disease cured mouse at 6 mg/kg, im administered once daily for 4 days measured on day 28. Format: functional, organism-based. Also noted: dose 6 mg/kg.
Data set [8] has as its system Plasmodium yoelii nigeriensis. Description: Antimalarial activity against chloroquine-, mefloquine-, halofantrine-resistant Plasmodium yoelii nigeriensis blood stream schizonts infected in Swiss mouse assessed as suppression of parasitemia at 24 mg/kg, im administered once daily for 4 days relative to control. The note with it: route intramuscular. Format: functional.

Data set [9] relates to Plasmodium yoelii nigeriensis. Description: Antimalarial activity against chloroquine-, mefloquine-, halofantrine-resistant Plasmodium yoelii nigeriensis blood stream schizonts infected in Swiss mouse assessed as disease cured mouse at 3 mg/kg, im administered once daily for 4 days measured on day 28. Format: functional, organism-based. Also noted: dose 3 mg/kg.
For data set [10], the system named is Plasmodium yoelii nigeriensis. Description: Antimalarial activity against chloroquine-, mefloquine-, halofantrine-resistant Plasmodium yoelii nigeriensis blood stream schizonts infected in Swiss mouse assessed as suppression of parasitemia at 3 mg/kg, im administered once daily for 4 days relative to control. Format: functional. The note with it: route intramuscular.

Data set [11] has as its system Plasmodium yoelii nigeriensis. Description: Antimalarial activity against chloroquine-, mefloquine-, halofantrine-resistant Plasmodium yoelii nigeriensis blood stream schizonts infected in Swiss mouse assessed as disease cured mouse at 24 mg/kg, im administered once daily for 4 days measured on day 28. Format: functional, organism-based. On the set-up: dose 24 mg/kg.

Data set [12] has as its system Plasmodium yoelii nigeriensis. Description: Antimalarial activity against chloroquine-, mefloquine-, halofantrine-resistant Plasmodium yoelii nigeriensis infected in Swiss mouse assessed as protection from infection at 3 to 48 mg/kg, im administered once daily for 4 days measured on day 28 relative to artesunic acid. Format: functional. The note with it: dose mg/kg 3-48; route intramuscular.

Active and inactive are the calls of the source. The rule behind the calls is not given here.

For `C[C@H]1[C@@H](OCCOCCOCCOC(=O)CCC(=O)O)O[C@@H]2O[C@@]3(C)CC[C@H]4[C@H](C)CC[C@@H]1[C@@]24OO3`, the log partition coefficient (logP) in data set [1] is 2.54. The Activity in [2] is listed as 92%.

In data set [1], `C[C@H]1[C@@H](OCCCCCCCCCCO)O[C@@H]2O[C@@]3(C)CC[C@H]4[C@H](C)CC[C@@H]1[C@@]24OO3` registered a logP of 6.05. Further, the Activity in data set [3], in data set [6], in [2] and in [8] was 100% in each case. Also, the result in [4] and in [7] was inactive. Besides, the outcome in [5] was Active.

In turn, `C[C@H]1[C@@H](OCCCCCCO)O[C@@H]2O[C@@]3(C)CC[C@H]4[C@H](C)CC[C@@H]1[C@@]24OO3` returned a logP in data set [1] of 4.38. Besides, the Activity in data set [3], in [10], in [6], in [2] and in [8] was 100% each time. For the same compound, the outcome in data set [9] was inactive. The result in data set [4], in data set [11] and in data set [5] was Active.

As for `C[C@H]1[C@@H](OCCOC(=O)CCC(=O)O)O[C@@H]2O[C@@]3(C)CC[C@H]4[C@H](C)CC[C@@H]1[C@@]24OO3`, the lipophilicity (logP) in data set [1] worked out at 2.89. The outcome in data set [5] was inactive. Further, the Activity in data set [2] stood at 100%.

In data set [1], `C[C@H]1[C@@H](OCCCCCO)O[C@@H]2O[C@@]3(C)CC[C@H]4[C@H](C)CC[C@@H]1[C@@]24OO3` gave a logP of 3.97. Also, the Activity in data set [3], in [6], in data set [2] and in data set [8] was 100% throughout. Also, the result in data set [4], in data set [11] and in data set [5] was Active.

As to `C[C@H]1[C@@H](OCCOCCO)O[C@@H]2O[C@@]3(C)CC[C@H]4[C@H](C)CC[C@@H]1[C@@]24OO3`, the logP in [1] amounted to 2.83. The Activity in data set [3], in [6], in data set [2] and in data set [8] was 100% throughout. In addition, the outcome in data set [11] and in data set [5] was Active. Also, in data set [7], the outcome was inactive.

The compound `C[C@H]1[C@@H](OCCCCO)O[C@@H]2OC3(C)CC[C@H]4[C@H](C)CC[C@@H]1[C@@]24OO3` yielded a logP in data set [1] of 3.55. For the same compound, the Activity in data set [3] is 100%; in data set [10] it was 98.3%; in data set [6], 100%; in data set [2], 100%; in [8], 100%. Besides, the outcome in data set [4], in data set [11] and in [5] was Active.

The compound `C[C@H]1[C@@H](OCCCCCCOC(=O)CCC(=O)O)O[C@@H]2O[C@@]3(C)CC[C@H]4[C@H](C)CC[C@@H]1[C@@]24OO3` showed a log partition coefficient (logP) in data set [1] of 4.28. The result in [5] was inactive. Moreover, the Activity in [2] stood at 98.55%.

In the case of `C[C@H]1[C@@H](OCCCCCCCCOC(=O)CCC(=O)O)O[C@@H]2O[C@@]3(C)CC[C@H]4[C@H](C)CC[C@@H]1[C@@]24OO3`, the logP in data set [1] amounted to 5.12. Also, the Activity in data set [3], in [2] and in [8] was 100% in each case. Moreover, the outcome in [4] was inactive. Further, the result in data set [11] and in [5] was Active. For the same compound, in data set [12], the “fold change (FC)” value stood at 2.

For the compound `CCO[C@H]1O[C@@H]2O[C@@]3(C)CC[C@H]4[C@H](C)CC[C@@H]([C@H]1C)[C@@]24OO3` [ARTEMOTIL], in [9], the outcome was inactive. The Activity in [10] and in [6] was 100% each time. Also, in [7], the outcome was Active.

The compound `C[C@H]1[C@@H](OCCCCCCCCO)O[C@@H]2O[C@@]3(C)CC[C@H]4[C@H](C)CC[C@@H]1[C@@]24OO3` registered a logP in [1] of 5.22. Moreover, the Activity in [3], in data set [6], in data set [2] and in [8] was 100% throughout. The outcome in [4], in data set [11] and in data set [5] was Active.

Take `C[C@H]1[C@@H](OCCCO)O[C@@H]2O[C@@]3(C)CC[C@H]4[C@H](C)CC[C@@H]1[C@@]24OO3`: in data set [1], the logP came to 3.1. In addition, the Activity worked out at 100% in [3]; 98.3% in [10]; 100% in data set [6]; 100% in data set [2]; 100% in data set [8]. In [9], the result was inactive. Moreover, the result in [11] and in [5] was Active.

Regarding `C[C@H]1[C@@H](OCCOCCOCCOCCOC(=O)CCC(=O)O)O[C@@H]2O[C@@]3(C)CC[C@H]4[C@H](C)CC[C@@H]1[C@@]24OO3`, the logP in [1] stood at 2.42. The result in data set [5] was inactive. Besides, the Activity in data set [2] came to 97%.

For `C[C@H]1[C@@H](OCCOCCOCCOCCO)O[C@@H]2O[C@@]3(C)CC[C@H]4[C@H](C)CC[C@@H]1[C@@]24OO3`, the lipophilicity (logP) in [1] was 2.52. Moreover, the Activity in [3], in [2] and in data set [8] was 100% throughout. Besides, the outcome in data set [4] and in [11] was inactive.

As to `C[C@H]1[C@@H](OCCO)O[C@@H]2O[C@@]3(C)CC[C@H]4[C@H](C)CC[C@@H]1[C@@]24OO3`, in [1], the logP was 2.99. The Activity in data set [3], in [6], in [2] and in data set [8] was 100% each time. The outcome in [11] and in data set [5] was Active.

On to `C[C@H]1[C@@H](OCCOCCOC(=O)CCC(=O)O)O[C@@H]2O[C@@]3(C)CC[C@H]4[C@H](C)CC[C@@H]1[C@@]24OO3`, for which the logP in [1] was determined as 2.73. Besides, the Activity in [2] amounted to 100%.

In [1], `C[C@H]1[C@@H](OCCOCCOCCO)O[C@@H]2O[C@@]3(C)CC[C@H]4[C@H](C)CC[C@@H]1[C@@]24OO3` displayed a lipophilicity (logP) of 2.68. The Activity in [3], in data set [2] and in data set [8] was 100% throughout. Besides, the outcome in data set [4] and in data set [11] was inactive.

In data set [1], `C[C@H]1[C@@H](OCCCCCCCCCCCCO)O[C@@H]2O[C@@]3(C)CC[C@H]4[C@H](C)CC[C@@H]1[C@@]24OO3` showed a log partition coefficient (logP) of 6.89. In addition, in data set [11], the result was inactive. Also, the Activity in [2] and in [8] was 100% throughout.

With `C[C@H]1[C@@H](OCCCOC(=O)CCC(=O)O)O[C@@H]2O[C@@]3(C)CC[C@H]4[C@H](C)CC[C@@H]1[C@@]24OO3`, in data set [1], the lipophilicity (logP) is 2.99. The outcome in [5] was inactive. The Activity in data set [2] turned out to be 100%.

`C[C@H]1[C@@H](OCCCCOC(=O)CCC(=O)O)O[C@@H]2O[C@@]3(C)CC[C@H]4[C@H](C)CC[C@@H]1[C@@]24OO3` came in with a log partition coefficient (logP) in [1] of 3.45. Further, the Activity in [2] worked out at 100%.

For the compound `C[C@H]1[C@@H](OCCCCCCCCCOC(=O)CCC(=O)O)O[C@@H]2O[C@@]3(C)CC[C@H]4[C@H](C)CC[C@@H]1[C@@]24OO3` (mixture of isomers), the logP in data set [1] is 5.53. Also, the Activity in data set [3] is reported as 67.27%; in data set [2] it was 100%; in [8], 93.09%. In addition, the outcome in [4] and in [11] was inactive. Also, the result in data set [5] was Active.

Regarding `C[C@H]1[C@@H](OCCCCCOC(=O)CCC(=O)O)O[C@@H]2O[C@@]3(C)CC[C@H]4[C@H](C)CC[C@@H]1[C@@]24OO3`, the lipophilicity (logP) in [1] is 3.86. The outcome in [11] and in [5] was inactive. Besides, the Activity in [2] was determined as 94.91%; in data set [8] it was 92.73%.

In general, logP refers to a log measure of how a compound divides between an organic and an aqueous phase. Read a low logP as a more hydrophilic compound.

(Values after ChEMBL document CHEMBL2029316, “Linker-based hemisuccinate derivatives of artemisinin: synthesis and antimalarial assessment against multidrug-resistant Plasmodium yoelii nigeriensis in mice” (J Med Chem, 2012).)
